Laboratory results reported in US5795907A, “Gastin and CCK receptor ligands” (James Black Foundation Limited, priority 1994, dated 1998).

Columns and labels:
CCKB receptor = biological target: T1, CCKB receptor (Mus musculus, UniProt P56481); assay: CCKB receptor radioligand binding assay in mouse cortical membranes ([125I]-CCK8S); conditions: [125I]-CCK8S 200 pM, 150 min at 21±3°; for Ki: read-out: CCKB pKi (converted)
T1 construct: The cortex was dissected, weighed and homogenised in 40ml ice-cold buffer; tissue Charles River (supplier of the CD1 mice); host or cells: cerebral cortex membranes of male CD1 mice
T1 sequence (P56481 1-453): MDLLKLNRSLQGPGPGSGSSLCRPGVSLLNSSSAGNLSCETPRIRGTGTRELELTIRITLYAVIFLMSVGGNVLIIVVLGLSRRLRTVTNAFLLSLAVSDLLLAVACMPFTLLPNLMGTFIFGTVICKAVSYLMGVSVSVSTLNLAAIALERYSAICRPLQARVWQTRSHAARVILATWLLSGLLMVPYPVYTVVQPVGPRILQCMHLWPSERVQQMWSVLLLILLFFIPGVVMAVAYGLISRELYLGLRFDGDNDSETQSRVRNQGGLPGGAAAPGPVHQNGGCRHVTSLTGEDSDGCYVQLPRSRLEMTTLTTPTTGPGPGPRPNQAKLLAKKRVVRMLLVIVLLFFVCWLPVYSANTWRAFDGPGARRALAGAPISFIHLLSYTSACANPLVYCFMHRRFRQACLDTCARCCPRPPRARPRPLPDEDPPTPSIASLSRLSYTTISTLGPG
Outline: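 This was competition binding with tracer [125I]-CCK8S (200 pM solution added), run for 150 min at 21±3° on male CD1 mouse cortex membranes in pH 7.2 HEPES buffer with bacitracin. Filtration then gamma counting gave bound radioactivity. L-365,260 set the non-specific level.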

CCKA = biological target: T2, CCKA (Cavia porcellus, UniProt Q63931); assay: CCKA radioligand binding assay in guinea-pig pancreas membranes ([125I]-CCK8(S)); conditions: PD134,308 present, 150 minutes at 21±3°; for Ki: read-out: CCKA pKi (converted)
T2 construct: The pancreatata were homogenised in 40 ml ice-cold HEPES buffer using a polytron; from tissue; host or cells: pancreas membranes of male Dunkin Hartley guinea-pigs
T2 sequence (Q63931 1-430): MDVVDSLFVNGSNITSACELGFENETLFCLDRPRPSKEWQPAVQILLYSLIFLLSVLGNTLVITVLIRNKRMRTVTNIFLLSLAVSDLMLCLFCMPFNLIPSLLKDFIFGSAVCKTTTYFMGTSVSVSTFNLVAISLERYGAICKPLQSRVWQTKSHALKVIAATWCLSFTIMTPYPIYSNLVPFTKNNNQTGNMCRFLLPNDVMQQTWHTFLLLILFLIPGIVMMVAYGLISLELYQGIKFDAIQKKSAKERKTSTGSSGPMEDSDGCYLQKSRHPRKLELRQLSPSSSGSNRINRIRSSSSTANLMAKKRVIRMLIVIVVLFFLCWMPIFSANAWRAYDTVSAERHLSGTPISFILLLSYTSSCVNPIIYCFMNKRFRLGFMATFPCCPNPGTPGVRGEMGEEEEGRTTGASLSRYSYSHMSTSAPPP
Outline: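 Competition for [125I]-CCK8(S) (added as […] solution) ran for 150 min at 21±3° in HEPES pH 7.2. Membranes came from male guinea-pig pancreas at 1 mg/ml original wet weight, with 0.375 μM PD134,308 in the suspension. Filter-bound counts were gamma-counted; 100 nM L-364,718 (added solution) defined non-specific binding.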

gastrin = biological target: T3, gastrin (Rattus norvegicus, UniProt P30553); assay: gastrin antagonist activity in an immature rat stomach assay (pentagastrin-stimulated acid secretion); conditions: cumulative pentagastrin dose-response curves after 60 min with drug; for Kb: read-out: Gastrin pKB (converted)
T3 construct: The stomach was lowered into a jacketed organ bath containing 40 ml of buffered solution; from tissue; host or cells: isolated perfused whole stomach of immature rats (ca. 21 days old)
T3 sequence (P30553 1-452): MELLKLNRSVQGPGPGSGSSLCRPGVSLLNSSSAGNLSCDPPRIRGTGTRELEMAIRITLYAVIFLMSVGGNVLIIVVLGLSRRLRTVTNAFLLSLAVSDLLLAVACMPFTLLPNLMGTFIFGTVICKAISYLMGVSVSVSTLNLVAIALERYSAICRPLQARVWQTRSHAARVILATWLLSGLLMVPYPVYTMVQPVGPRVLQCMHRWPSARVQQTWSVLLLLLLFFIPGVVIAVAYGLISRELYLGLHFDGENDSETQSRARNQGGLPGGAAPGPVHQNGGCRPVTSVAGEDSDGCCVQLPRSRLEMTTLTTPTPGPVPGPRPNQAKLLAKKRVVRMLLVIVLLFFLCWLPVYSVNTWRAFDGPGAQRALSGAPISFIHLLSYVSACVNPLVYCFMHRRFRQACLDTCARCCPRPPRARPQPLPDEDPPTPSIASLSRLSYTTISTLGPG
Outline: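 Isolated lumen-perfused immature rat stomach (33-50 g, ca. 21 days) in 37° organ bath with 3×10^-8 M 5-methylfurmethide; acid secretion read by pH electrode in perfusate. Compound added to serosal bath after 120 min stabilisation; cumulative pentagastrin dose-response curves begun 60 min later and analysed by the Black et al. method.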

Row | Compound | Ki (CCKB receptor) [nM] | Ki (CCKA) [nM] | Kb (gastrin) [nM] | CCKA pKi (CCKA) | CCKB pKi (CCKB receptor) | Gastrin pKB (gastrin)
1 | O=C(NCC12CC3CC(CC(C3)C1)C2)c1cc2nc[nH]c2cc1C(=O)N[C@@H](Cc1ccccc1)C(=O)Nc1cccc(-c2nn[nH]n2)c1 [Example 83, 5-(1S-(3-tetrazolylphenylaminocarbonyl)-2-phenylethylaminocarbonyl)-6-(1-adamantanemethylaminocarbonyl)-benzimidazole] | 15.8 | 398 | 63.1 | – | – | –
2 | CN(C(=O)c1cc2[nH]cnc2cc1C(=O)NCC12CC3CC(CC(C3)C1)C2)[C@@H](Cc1ccccc1)C(=O)Nc1cc(C(=O)O)cc(C(=O)O)c1 [Example 86, 5-(1S-(3,5-dicarboxyphenylaminocarbonyl)-2-30 phenylethyl-(N-methylamino)-carbonyl)-6-(1-adamantanemethylaminocarbonyl)-benzimidazole] | 31.6 | – | 20 | 5.0 | – | –
3 | O=C(O)c1cc(NC(=O)[C@@H](Cc2ccccc2)NC(=O)c2cc3[nH]cnc3cc2C(=O)NCC23CC4CC(CC(C4)C2)C3)cc(C(=O)O)c1 [Example 61, 5-(1R-(3,5-dicarboxyphenylaminocarbonyl)-2-phenylethylaminocarbonyl)-6-(1-adamantanemethylaminocarbonyl)-benzimidazole] | 3.98 | 6310 | 2 | – | – | –
4 | O=C(O)c1cc(NC(=O)[C@H](Cc2ccccc2)NC(=O)c2ccc3[nH]cnc3c2C(=O)NCC23CC4CC(CC(C4)C2)C3)cc(C(=O)O)c1 [Example 112, 5-(1S-(3,5-dicarboxyphenylaminocarbonyl)-2-phenylethylaminocarbonyl)-4-(1-adamantanemethylaminocarbonyl)-benzimidazole] | – | – | – | < 5.0 | 8.1 | 8.2
5 | O=C(O)c1cc(NC(=O)C(Cc2c(F)c(F)c(F)c(F)c2F)NC(=O)c2cc3[nH]cnc3cc2C(=O)NCC23CC4CC(CC(C4)C2)C3)cc(C(=O)O)c1 (racemic) [Example 136, (±)-5-(1-(3,5-dicarboxyphenylaminocarbonyl)-2-pentafluorophenylethylaminocarbonyl)-6-(1-adamantanemethylaminocarbonyl)-benzimidazole] | 1.26 | > 10000 | 0.316 | – | – | –
6 | 5-(1S-(3,5-dicarboxyphenylaminocarbonyl)-ethylaminocarbonyl)-6-(cycloheptanemethylaminocarbonyl)-indole and regioisomer with substituents at positions 5 and 6 reversed [Example 58] | – | – | – | 5.0 | 6.5 | 7.5
7 | O=C(NCC12CC3CC(CC(C3)C1)C2)c1cc2[nH]ccc2cc1C(=O)N[C@@H](Cc1ccccc1)C(=O)Nc1cc(-c2nn[nH]n2)cc(-c2nn[nH]n2)c1 [Example 104, 5-(1S-(3,5-ditetrazolylphenylaminocarbonyl)-2-phenylethylaminocarbonyl)-6-(1-adamantanemethylaminocarbonyl)-indole] | 1.26 | 316 | 2.51 | – | – | –
8 | O=C(O)c1cc(NC(=O)[C@H](Cc2ccccc2)NC(=O)c2cc3ccccc3cc2C(=O)NCC23CC4CC(CC(C4)C2)C3)cc(C(=O)O)c1 [Example 15, 2-(1S-(3,5-dicarboxyphenylaminocarbonyl)-2-phenylethylaminocarbonyl)-3-(1-adamantanemethylaminocarbonyl)-naphthalene] | – | – | – | 6.1 | 7.9 | 8.2
9 | 5-(1S-(3-methoxycarbonyl-5-pivaloyloxymethyloxycarbonyl-phenylaminocarbonyl)-2-phenylethylaminocarbonyl)-6-(1-adamantanemethylaminocarbonyl)-indole and regioisomer with substituents at positions 5 and 6 reversed [Example 39] | – | – | – | 4.9 | 6.4 | 6.8
10 | 5-(1S-(3,5-dicarboxyphenylaminocarbonyl)-2-phenylethylaminocarbonyl)-6-(cycloheptanemethylaminocarbonyl)-indole and regioisomer with substituents at positions 5 and 6 reversed [Example 42] | – | – | – | 5.5 | 7.8 | 9.3
11 | O=C(O)c1cc(NC(=O)[C@H](Cc2ccccc2)NC(=O)C2Cc3[nH]cnc3CN2C(=O)NCC23CC4CC(CC(C4)C2)C3)cc(C(=O)O)c1 (mixture of isomers) [Example 126, (±)-6-(1S-(3,5-dicarboxyphenylaminocarbonyl)-2-phenylethylaminocarbonyl)-5-(1-adamantanemethylaminocarbonyl)-4,5,6,7-tetrahydro-5-aza-benzimidazole] | 501 | 5010 | 100 | – | – | –
12 | 5-(1S-(3,5-di-methylsulphonylaminophenylaminocarbonyl)-2-phenylethylaminocarbonyl)-6-(1-adamantanemethylaminocarbonyl)-indole [Example 92] | – | – | – | 4.9 | 6.5 | 6.8
13 | O=C(O)c1cc(NC(=O)[C@H](Cc2ccc(O)cc2)NC(=O)c2cc3[nH]cnc3cc2C(=O)NCC23CC4CC(CC(C4)C2)C3)cc(C(=O)O)c1 [Example 60, 5-(1S-(3,5-dicarboxyphenylaminocarbonyl)-2-(4-hydroxyphenyl)ethylaminocarbonyl)-6-(1-adamantanemethyaminocarbonyl)-benzimidazole] | – | 2510 | 7.94 | – | 7.8 | –
14 | O=C(NCC12CC3CC(CC(C3)C1)C2)c1cc2[nH]ccc2cc1C(=O)N[C@@H](Cc1ccccc1)C(=O)Nc1cc(NS(=O)(=O)C(F)(F)F)cc(NS(=O)(=O)C(F)(F)F)c1 [Example 93, 5-(1S-(3,5-di-trifluoromethylsulphonylaminophenylaminocarbonyl)-2-phenylethylaminocarbonyl)-6-(1-adamantanemethylaminocarbonyl)-indole] | – | – | – | 5.6 | 8.1 | 7.7
15 | COC(=O)[C@H](C)NC(=O)c1cc2ccccc2cc1C(=O)NCC12CC3CC(CC(C3)C1)C2 [Example 2, 2-(1S-methoxycarbonyl-ethylaminocarbonyl)-3-(1-adamantanemethylaminocarbonyl)-naphthalene] | 3160 | 12600 | 1000 | – | – | –
16 | O=C(O)c1cc(NC(=O)[C@H](Cc2ccccc2F)NC(=O)c2cc3[nH]cnc3cc2C(=O)NCC2CCCCCC2)cc(C(=O)O)c1 [Example 70, 5-(1S-(3,5-dicarboxyphenylaminocarbonyl)-2-(2-fluorophenyl)ethylaminocarbonyl)-6-(cycloheptanemethylaminocarbonyl)-benzimidazole] | 7.94 | 7940 | 15.8 | – | – | –
